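Cultured in 96-well plates, cells were exposed to test compound for 48 hours across five concentrations. The concentration for 50% growth inhibition is given as GI50.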 Calls of active or inactive are those of the source. Cut-off read from the data, not from the text of the source: active = GI50 up to about 1.1 µM and inactive = higher.

Test systems include SK-MEL-28; SF-539; SNB-75; ACHN; MOLT-4; EKVX; NCI-H226; NCI-H460; OVCAR-8; A498; SW-620; NCI-H23; SNB-19; TK-10; SK-MEL-5; HCT-15; MDA-MB-435; DU-145; SR.
Common to all, as to experiment: NCI anticancer screen, dose series, 48 h

Turning to `CN[C@@H](C)[C@@H](N)c1ccccc1`, the GI50 with SK-MEL-28 is > 100 µM (inactive); in the experiment on SF-539 it was > 100 µM (inactive); in the experiment with SNB-75, 62.8 µM (inactive); in the experiment with ACHN it was > 100 µM (inactive); in the experiment on MOLT-4 it was > 100 µM (inactive); with EKVX it was > 100 µM (inactive). Further, the GI50 with NCI-H226, in the experiment with NCI-H460, in the experiment on OVCAR-8, in the experiment on A498, in the experiment on SW-620 and with NCI-H23 was > 100 µM (inactive) in each case. For the same compound, the GI50 with SNB-19 was > 100 µM (inactive); in the experiment with TK-10 it was > 100 µM (inactive); in the experiment on SK-MEL-5, > 100 µM (inactive); in the experiment with HCT-15, above 100 µM.
Regarding `COC(=O)[C@@H](NC(=O)N(CCC#N)CCCN(C(=O)N[C@H](Cc1ccccc1)C(=O)OC)c1ccccc1)C(C)C`, the GI50 with SK-MEL-28 was 34.3 µM (inactive); with SF-539 it was > 100 µM (inactive); in the experiment with SNB-75, > 100 µM (inactive); in the experiment with ACHN it was 85.5 µM (inactive); in the experiment on MOLT-4, 23 µM (inactive); with EKVX, > 100 µM (inactive). The GI50 in the experiment with NCI-H226 was > 100 µM (inactive); with MDA-MB-435, 57.1 µM (inactive); in the experiment with OVCAR-8 it was > 100 µM (inactive); in the experiment with A498 it was > 100 µM (inactive); with SW-620, > 100 µM (inactive); with NCI-H23 it was > 100 µM (inactive). Besides, the GI50 is > 100 µM (inactive) in the experiment with SNB-19; > 100 µM (inactive) in the experiment with TK-10; 62.2 µM (inactive) in the experiment with SK-MEL-5; > 100 µM (inactive) in the experiment on DU-145; 86.3 µM with HCT-15.
For the compound `CCOC(=O)NC1C2CC(=O)OC(O2)C1OC(C)=O` (configuration not stated), the GI50 in the experiment with SR, with SK-MEL-28, in the experiment on SF-539, in the experiment with SNB-75, in the experiment on ACHN and in the experiment on MOLT-4 was > 100 µM (inactive) in each case. Also, the GI50 in the experiment on EKVX was > 100 µM (inactive); in the experiment on NCI-H226, 0.424 µM (active); in the experiment on NCI-H460 it was > 100 µM (inactive); in the experiment on OVCAR-8, > 100 µM (inactive); with A498, > 100 µM (inactive); in the experiment on SW-620 it was > 100 µM (inactive). Further, the GI50 in the experiment on NCI-H23 is > 100 µM (inactive); with SNB-19, > 100 µM (inactive); with TK-10, > 100 µM (inactive); with SK-MEL-5, > 100 µM (inactive); in the experiment with HCT-15 it was above 100 µM.
Consider `Cc1cccc(Nc2cnc(N)nc2N)c1`, for which the GI50 in the experiment on SK-MEL-28 was > 100 µM (inactive); in the experiment on SF-539 it was > 100 µM (inactive); in the experiment on SNB-75, 83 µM (inactive); with ACHN, > 100 µM (inactive); with MOLT-4, > 100 µM (inactive); in the experiment with EKVX it was > 100 µM (inactive). Moreover, the GI50 with NCI-H226, in the experiment on MDA-MB-435, in the experiment with OVCAR-8, in the experiment with A498, in the experiment with SW-620 and in the experiment with NCI-H23 was > 100 µM (inactive) in each case. The GI50 was > 100 µM (inactive) in the experiment on SNB-19; > 100 µM (inactive) in the experiment on TK-10; > 100 µM (inactive) in the experiment with SK-MEL-5; > 100 µM (inactive) in the experiment on DU-145; above 100 µM with HCT-15.
For the compound `O=C1N/N=C\Nc2ccc(cc2)S(=O)(=O)c2ccc(cc2)/N=C\NNC1=O`, the GI50 in the experiment on SK-MEL-28, in the experiment on SF-539, in the experiment on ACHN, with MOLT-4, with EKVX and in the experiment with NCI-H226 was > 100 µM (inactive) throughout. Also, the GI50 was > 100 µM (inactive) in the experiment on MDA-MB-435; > 100 µM (inactive) in the experiment on NCI-H460; > 100 µM (inactive) in the experiment on OVCAR-8; 20 µM (inactive) with A498; > 100 µM (inactive) with SW-620; > 100 µM (inactive) in the experiment on NCI-H23. In addition, the GI50 in the experiment with SNB-19 is > 100 µM (inactive); with TK-10, > 100 µM (inactive); in the experiment with SK-MEL-5, > 100 µM (inactive); with DU-145, > 100 µM (inactive); in the experiment with HCT-15 it was above 100 µM.
As for `CC(C)(C)OC(=O)N[C@H]1CC2(C=C(Cl)C(=O)C(Cl)=C2)OC1=O`, the GI50 with SR was 1.93 µM (inactive); in the experiment with SK-MEL-28, 11.4 µM (inactive); in the experiment on SF-539, 21.1 µM (inactive); with SNB-75 it was 20.5 µM (inactive); in the experiment with ACHN, 14.6 µM (inactive); in the experiment with MOLT-4, 2.48 µM (inactive). The GI50 in the experiment on EKVX is 15.2 µM (inactive); with NCI-H226, > 59.7 µM (inactive); with NCI-H460, 24.3 µM (inactive); in the experiment with OVCAR-8 it was 17.1 µM (inactive); in the experiment on A498, 4.18 µM (inactive); with SW-620, 4.33 µM (inactive). Further, the GI50 is 17.3 µM (inactive) with NCI-H23; > 100 µM (inactive) with SNB-19; 17.5 µM (inactive) in the experiment on TK-10; 19.1 µM (inactive) in the experiment with SK-MEL-5; 27.9 µM (inactive) in the experiment with DU-145; 14.2 µM with HCT-15.
With `Cc1ccc(C(C2C(=O)N(C)C(=O)N(C)C2=O)C(F)(F)C(=O)N(C)C)cc1` (configuration not stated), the GI50 with SK-MEL-28 was > 100 µM (inactive); in the experiment with SF-539 it was 45.3 µM (inactive); in the experiment on SNB-75, > 100 µM (inactive); in the experiment with ACHN it was > 100 µM (inactive); in the experiment with EKVX, > 100 µM (inactive); in the experiment with NCI-H226, > 100 µM (inactive). The GI50 in the experiment with MDA-MB-435, with NCI-H460, in the experiment with OVCAR-8, in the experiment on A498, in the experiment on SW-620 and in the experiment on NCI-H23 was > 100 µM (inactive) in each case. Besides, the GI50 in the experiment on SNB-19 is > 100 µM (inactive); in the experiment on TK-10, > 100 µM (inactive); in the experiment with SK-MEL-5, > 100 µM (inactive); in the experiment with DU-145, > 100 µM (inactive); with HCT-15 it was above 100 µM.
Regarding `COc1ccc(C2CC(c3cc4c(C)c(C(=O)c5ccccc5)oc4cc3O)=Nc3ccccc3S2)cc1OC` (configuration not stated), the GI50 with SR is 52.5 µM (inactive); in the experiment on SK-MEL-28, > 100 µM (inactive); with SF-539, > 50 µM (inactive); in the experiment on SNB-75, 73.6 µM (inactive); with ACHN, > 65.8 µM (inactive); with MOLT-4, > 100 µM (inactive). In addition, the GI50 in the experiment with EKVX was 28.2 µM (inactive); in the experiment with NCI-H226 it was > 100 µM (inactive); in the experiment with MDA-MB-435, 0.733 µM (active); in the experiment on NCI-H460, > 100 µM (inactive); in the experiment with OVCAR-8, > 100 µM (inactive); in the experiment on A498, > 57.5 µM (inactive). Also, the GI50 in the experiment on SW-620 was > 84.7 µM (inactive); in the experiment on NCI-H23, 52.7 µM (inactive); in the experiment on SNB-19 it was 48.8 µM (inactive); in the experiment with TK-10 it was > 77.1 µM (inactive); in the experiment on SK-MEL-5, > 56.5 µM (inactive); in the experiment with HCT-15, above 73.1 µM.
